System: C. albicans
Assay: In vitro antifungal susceptibility testing (MIC), soyabean casein digest broth
Type: cell-based
Details: Candida albicans, reference standard, end points after 48 hours, read-out: minimum inhibitory concentration
Experimental: In vitro evaluation of antifungal activity can be performed by determining the minimum inhibitory concentration.
Anti-fungal susceptibility testing of these anti-fungal compounds was done by conventional method using soyabean casein digest broth. Known anti-fungal agents like Fluconazole and amphotericin-B were used as positive Control. End points were determined after 48 hours visually and by using Spectrophotometer wherever necessary. Different dilutions were tried and the set of experiments where repeated to confirm the end points. Standard cultures of Candida, Aspergillus and Fusarium were used for screening of these drugs.
Substituents and In-Vitro Anti-Fungal Activity (C. albicans) of the Compounds Expressed as MIC* (μg/ml). Reference Standard (RS) Fluconazole.

`OC(Cn1cncn1)(Cn1cncn1)c1ccc(F)cc1F` [Fluconazole] showed an MIC of less than 3.12 µg/mL.
